Assay results taken from article PMC6145916, “Interaction of mitochondrial fission factor with dynamin related protein 1 governs physiological mitochondrial function in vivo” (Scientific Reports, 2018).
Where no end group is shown, it is not given here.

Test system: wild-type mice
Assay: Open-field activity chamber behavior
Format: in vivo, mouse
Settings: 3 mg/Kg/day
Text: (a) Quantification of mitochondrial Drp1 content relative to ALDH2 (a mitochondrial matrix enzyme) in the mitochondrial fraction isolated from total brain lysate of wild-type mice (Western blot shown in Fig. S3B) (n = 4 mice). (b) ATP content in brain tissue of wild-type mice (n = 4 mice, 2 replicates). (c) Representative transmission electron microscopy images of the striatum from wild-type mice. […] The first principal component represents 42% of the variation. (f) Local linear embedding dimensionality reduction and visualization of all behaviors collected weekly from TAT- (black) or P259- (purple) treated WT and TAT- (white) treated R6/2 mice over the course of 8 weeks. […] All behavior and survival tests were conducted by an experienced observer who was blinded to the treatment groups. Data are mean ± s.e.
Five-week old R6/2 HD mice and their wild-type littermates (a total of 60 mice) were implanted subcutaneously with a 28-d Alzet osmotic pump with either P259-TAT or TAT control peptide (15 mice per group) to be delivered continuously at a rate of 3 mg/Kg/day, as previously described. All mice were implanted twice for a total of an 8-week treatment. 20 of the WT mice were implanted 3 times for a total of a 12-week treatment at 3 mg/Kg/day. All the experiments were in accordance with protocols approved by the Institutional Animal Care and Use Committee of Stanford University and were performed based on the National Institutes of Health Guide for the Care and Use of Laboratory Animals. All methods were carried out in accordance with the relevant guidelines and regulations. […]
Survival and behavioral mice studies […]
All behavior and […]
survival tests were conducted by an experienced ob server who was blinded to the treatment groups.
Behavioral tests were administered weekly in an open-field activity arena (Med Associate s Inc, St.
Albans, VT. Model ENV-515) equipped with three planes of infrared detectors within a sound-proof chamber (Med Associates Inc., St. Albans, VT. MED-017-027), as described previously.12 Each mouse was placed in a corner of the chamber and was tracked for a period of 15 minutes.
The following activities were recorded: digging duration, grooming duration, climbing duration, rearing duration, seizure frequency, average velocity, active behaviors, total distance moved, jump counts/time, ambulatory counts/distance/time, latency towards center, stereotypic time/counts, resting time, vertical counts/time, and zone entries (center/periphery).
Dimensionality reduction of mouse behavior data
The collection of weekly behavior parameters for wild-type mice treated with P259 or the TAT control was assembled into a vector with a total of 180 behavior parameters per mouse. The top 20% of parameters contributing to treatment classification were filtered by using a combination of the ANOVA F- and the mutual information scores for each behavior. The filtered dataset was normalized and principal component analysis was performed using the Python scikit-learn package. An eigenvector was extracted to determine the contribution of each behavior to the first […]
treated wild-type mice and control-treated R6/2 mice during the eight-week treatment were assembled into a single vector for each mouse. The dataset was normalized and local linear embedding from the Python scikit-learn package was used to reduce the dimensionality of and visualize the behavior parameters.

[1] = 8-week treatment, WT mice, n = 10 mice

Substance: YGRKKRRQRRRGSGIIQLPEIVVV-NH2 (C-terminus assumed) [P259]
- active mouse behaviors [1]: less active
- jumping and climbing [1]: jumped and climbed less frequently
- total distance moved [1]: travelled for a shorter distance
- behavior profile, principal component analysis (top 20% of behaviors) (12 weeks, WT mice, vs TAT): successfully separated the behavior profile of P259- and TAT control-treated mice
- jump counts/time, periphery-to-center transition, movement counts, stereotypic time (WT mice, tested weekly, 12 weeks, vs TAT-treated mice): performed worse than TAT-treated mice
- aggregate behavior score (local linear embedding) (weekly over 8 weeks, P259-treated WT vs TAT-treated WT and TAT-treated R6/2 mice): intermediate aggregate behavior score between WT- and R6/2 control-treated mice
